Laboratory results: patent US9073862B2, “Substituted 2-oxy-quinoline-3-carboxamides as KCNQ2/3 modulators” (Grünenthal GmbH, priority 2010, dated 2015)

Molecular target: T1, KCNQ2/3 channels (Homo sapiens, UniProt O43525+O43526)
T1 construct: expressed in transfected cells; host or cells: CHO-K1
Experiment: Fluorescence assay using a voltage sensitive dye (fluorimetry)
Type: cell-based
Settings: CHO-K1 cells expressing KCNQ2/3 channels; for Emax: relative to retigabine = 100%, read-out: Fluorimetry % efficacy (retigabine = 100%)
Description: Method I. Fluorescence Assay Using a Voltage Sensitive Dye (Fluorimetry)
[…] CHO-K1 cells expressing KCNQ2/3 channels are cultivated adherently at 37° C., 5% CO2 and 95% humidity in cell culture bottles (e.g. 80 cm^2 TC flasks, Nunc) with DMEM-high glucose (Sigma Aldrich, D7777) including 10% FCS (PAN Biotech, e.g. 3302-P270521) or alternatively MEM Alpha Medium (1×, liquid, Invitrogen, #22571), 10% fetal calf serum (FCS) (Invitrogen, #10270-106, heat-inactivated) and the necessary selection antibiotics.
Before being sown out for the measurements, the cells are washed with 1×DPBS buffer Ca^2+/Mg^2+-free (e.g. Invitrogen, #14190-094) and detached from the bottom of the culture vessel by using Accutase (PAA Laboratories, #L11-007) (incubation with Accutase for 15 min at 37° C.). The cell number is determined using a CASY™ cell counter (TCC, Schärfe System). Depending on the optimal density for each individual cell line, 20,000-30,000 cells/well/100 μl are seeded onto 96-well Corning™ CellBIND™ assay plates (Flat Clear Bottom Black Polystyrene Microplates, #3340). Freshly seeded cells are then left to settle for one hour at room temperature, followed by incubation for 24 hours at 37° C., 5% CO2 and 95% humidity.
The voltage-sensitive fluorescent dye from the Membrane Potential Assay Kit (Red™ Bulk format part R8123 for FLIPR, MDS Analytical Technologies™) is prepared by dissolving the contents of one vessel Membrane Potential Assay Kit Red Component A in 200 ml of extracellular buffer (ES buffer, 120 mM NaCl, 1 mM KCl, 10 mM HEPES, 2 mM CaCl2, 2 mM MgCl2, 10 mM glucose; pH 7.4). After removal of the nutrient medium, the cells are washed once with 200 μl of ES buffer, then loaded for 45 min at room temperature in 100 μl of dye solution in the dark.
Fluorescence measurements are carried out in a BMG Labtech FLUOstar™, BMG Labtech NOVOstar™ or BMG Labtech POLARstar™ instrument (525 nm excitation, 560 nm emission, Bottom Read mode). After incubation with the dye, 50 μl of the test substances in the desired concentrations, or 50 μl of ES buffer for control purposes, are applied to the wells of the assay plate and incubated for 30 min at room temperature while being shielded from light. The fluorescence intensity of the dye is then measured for 5 min and the fluorescence value F1 of each well is thus determined at a given, constant time. 15 μl of a KCl solution are then added to each well (final concentration of potassium ions 92 mM). The change in fluorescence intensity is subsequently monitored until all the relevant values have been obtained (mainly 5-30 min). At a given time post KCl application, a fluorescence value F2 is determined, in this case at the time of the fluorescence peak.
For calculation, the fluorescence intensity F2 is corrected for the fluorescence intensity F1, and the activity (ΔF/F) of the target compound on the potassium channel is determined as follows:
In order to determine whether a substance has agonistic activity,
[formula] can be related to
[formula] of control wells.
[formula] is determined by adding to the well only the buffer solution instead of the test substance, determining the value F1K of the fluorescence intensity, adding the potassium ions as described above, and measuring a value F2K of the fluorescence intensity. F2K and F1K are then calculated as follows: […]
A substance has an agonistic activity on the potassium channel if
[formula] is greater than
Independently of the comparison of
[formula] it is possible to conclude that a target compound has agonistic activity if
[formula] increases dose dependently.
Calculations of EC50 and IC50 values are carried out with the aid of ‘Prism v4.0’ software (Graph Pad Software™).

Row | Structure (SMILES) | EC50 [nM] | Emax [%]
1 | CCOc1nc2cc(C#N)ccc2c(C)c1C(=O)NCc1cccc(F)c1 [Example 36, 7-cyano-2-ethoxy-N-[(3-fluorophenyl)-methyl]-4-methyl-quinoline-3-carboxylic acid amide] | 56 | 105
2 | COc1nc2cc(C(F)(F)F)ccc2c(C)c1C(=O)NCCC(C)(C)C [Example 1, N-(3,3-dimethyl-butyl)-2-methoxy-4-methyl-7-(trifluoromethyl)-quinoline-3-carboxylic acid amide] | – | 57
3 | COc1nc2cc(C(F)(F)F)ccc2c(C)c1C(=O)NCc1cc(O)cc(F)c1 [Example 43, N-[(3-fluoro-5-hydroxy-phenyl)-methyl]-2-methoxy-4-methyl-7-(trifluoromethyl)-quinoline-3-carboxylic acid amide] | – | 9
4 | CCOc1nc2cc(F)c(F)cc2c(OC)c1C(=O)NCc1cccc(F)c1 [Example 15, 2-ethoxy-6,7-difluoro-N-[(3-fluorophenyl)-methyl]-4-methoxy-quinoline-3-carboxylic acid amide] | 106 | 181
5 | Cc1c(C(=O)NCc2cccc(F)c2)c(OCCO)nc2cc(C(F)(F)F)ccc12 [Example 9, N-[(3-fluorophenyl)-methyl]-2-(2-hydroxy-ethoxy)-4-methyl-7-(trifluoromethyl)-quinoline-3-carboxylic acid amide] | 390 | 119
6 | COc1nc2cc(C(F)(F)F)ccc2c(C)c1C(=O)NCc1ccc(F)c(C)c1 [Example 23, N-[(4-fluoro-3-methyl-phenyl)-methyl]-2-methoxy-4-methyl-7-(trifluoromethyl)-quinoline-3-carboxylic acid amide] | 62 | 73
7 | COc1nc2cc(C(F)(F)F)ccc2c(C)c1C(=O)NCCCC(C)C [Example 28, 2-methoxy-4-methyl-N-(4-methyl-pentyl)-7-(trifluoromethyl)-quinoline-3-carboxylic acid amide] | 81 | 184
8 | CCOc1nc2cc(C(F)(F)F)ccc2c(C)c1C(=O)NCc1cccs1 [Example 2, 2-ethoxy-4-methyl-N-(thiophene-2-yl-methyl)-7-(trifluoromethyl)-quinoline-3-carboxylic acid amide] | 64 | 175
9 | COc1nc2cc(C(F)(F)F)ccc2c(C)c1C(=O)NCc1cccc(F)c1O [Example 42, N-[(3-fluoro-2-hydroxy-phenyl)-methyl]-2-methoxy-4-methyl-7-(trifluoromethyl)-quinoline-3-carboxylic acid amide] | 123 | 137
10 | COc1cc(F)cc(CNC(=O)c2c(OC)nc3cc(C(F)(F)F)ccc3c2C)c1 [Example 40, N-[(3-fluoro-5-methoxy-phenyl)-methyl]-2-methoxy-4-methyl-7-(trifluoromethyl)-quinoline-3-carboxylic acid amide] | – | 15
11 | COc1nc2c(F)c(F)ccc2c(C)c1C(=O)NCc1cccc(F)c1 [Example 49, 7,8-difluoro-N-[(3-fluorophenyl)-methyl]-2-methoxy-4-methyl-quinoline-3-carboxylic acid amide] | 229 | 70
12 | COc1nc2cc(F)ccc2c(C)c1C(=O)NCc1ccc(F)cc1 [Example 46, 7-fluoro-N-[(4-fluorophenyl)-methyl]-2-methoxy-4-methyl-quinoline-3-carboxylic acid amide] | 299 | 59
13 | Cc1c(C(=O)NCc2ccc(F)cc2)c(OC(C)C)nc2cc(C(F)(F)F)ccc12 [Example 11, N-[(4-fluorophenyl)-methyl]-2-isopropoxy-4-methyl-7-(trifluoromethyl)-quinoline-3-carboxylic acid amide] | 52 | 164
14 | COc1nc2cc(C(F)(F)F)ccc2c(C)c1C(=O)NCc1ccc(C)cc1 [Example 25, 2-methoxy-4-methyl-N-(p-tolyl-methyl)-7-(trifluoromethyl)-quinoline-3-carboxylic acid amide] | 182 | 96
15 | COc1nc2cc(C(F)(F)F)ccc2c(C)c1C(=O)NCc1cc(F)ccc1O [Example 44, N-[(5-fluoro-2-hydroxy-phenyl)-methyl]-2-methoxy-4-methyl-7-(trifluoromethyl)-quinoline-3-carboxylic acid amide] | 79 | 173
16 | CCOc1nc2cc(C(F)(F)F)ccc2c(C)c1C(=O)NCc1ccc(C)cc1 [Example 26, 2-ethoxy-4-methyl-N-(p-tolyl-methyl)-7-(trifluoromethyl)-quinoline-3-carboxylic acid amide] | 131 | 117
17 | COc1nc2cc(F)cc(F)c2c(C)c1C(=O)NCc1cccc(F)c1 [Example 47, 5,7-difluoro-N-[(3-fluorophenyl)-methyl]-2-methoxy-4-methyl-quinoline-3-carboxylic acid amide] | – | 43
18 | CCOc1nc2ccccc2c(C(F)(F)F)c1C(=O)NCc1cccc(F)c1 [Example 52, 2-ethoxy-N-[(3-fluorophenyl)-methyl]-4-(trifluoromethyl)-quinoline-3-carboxylic acid amide] | 205 | 67
19 | COc1nc2cc(C#N)ccc2c(C)c1C(=O)NCc1cccc(F)c1 [Example 37, 7-cyano-N-[(3-fluorophenyl)-methyl]-2-methoxy-4-methyl-quinoline-3-carboxylic acid amide] | 261 | 85
20 | CCOc1nc2cc(C(F)(F)F)ccc2c(OC)c1C(=O)NCc1ccc(F)cc1 [Example 14, 2-ethoxy-N-[(4-fluorophenyl)-methyl]-4-methoxy-7-(trifluoromethyl)-quinoline-3-carboxylic acid amide] | 75 | 155
21 | COc1nc2cc(C(F)(F)F)ccc2c(C)c1C(=O)NCc1ccc(C)c(F)c1 [Example 19, N-[(3-fluoro-4-methyl-phenyl)-methyl]-2-methoxy-4-methyl-7-(trifluoromethyl)-quinoline-3-carboxylic acid amide] | 92 | 99
22 | COc1nc2cc(F)c(F)cc2c(C)c1C(=O)NCc1cccc(F)c1 [Example 48, 6,7-difluoro-N-[(3-fluorophenyl)-methyl]-2-methoxy-4-methyl-quinoline-3-carboxylic acid amide] | 315 | 96
23 | CC(C)Oc1nc2ccccc2c(C(F)(F)F)c1C(=O)NCc1cccc(F)c1 [Example 53, N-[(3-fluorophenyl)-methyl]-2-isopropoxy-4-(trifluoromethyl)-quinoline-3-carboxylic acid amide] | 108 | 84
24 | COc1nc2cc(F)c(F)cc2c(OC)c1C(=O)NCc1cccc(F)c1 [Example 17, 6,7-difluoro-N-[(3-fluorophenyl)-methyl]-2,4-dimethoxy-quinoline-3-carboxylic acid amide] | 218 | 147
25 | COc1nc2cc(C(F)(F)F)ccc2c(C)c1C(=O)NCc1cccc(F)c1OC [Example 39, N-[(3-fluoro-2-methoxy-phenyl)-methyl]-2-methoxy-4-methyl-7-(trifluoromethyl)-quinoline-3-carboxylic acid amide] | – | 10
26 | COc1nc2ccccc2c(C(F)(F)F)c1C(=O)NCc1cccc(F)c1 [Example 51, N-[(3-fluorophenyl)-methyl]-2-methoxy-4-(trifluoromethyl)-quinoline-3-carboxylic acid amide] | – | 40
